One compound from patent US20210095293A1, “METHODS OF TREATING CANCERS WITH GPR132 INHIBITORS” (The Board of Regents of the University of Texas System, priority 2016, published 2021) can be followed below.

The test deals with T1, macrophage Gpr132 (Mus musculus, UniProt Q9Z282).
T1 construct: endogenous in cells; host or cells: bone marrow-derived macrophages (BMDMs) from WT C57BL/6 mice; Gpr132-KO BMDMs served as negative control
T1 sequence (Q9Z282 1-382): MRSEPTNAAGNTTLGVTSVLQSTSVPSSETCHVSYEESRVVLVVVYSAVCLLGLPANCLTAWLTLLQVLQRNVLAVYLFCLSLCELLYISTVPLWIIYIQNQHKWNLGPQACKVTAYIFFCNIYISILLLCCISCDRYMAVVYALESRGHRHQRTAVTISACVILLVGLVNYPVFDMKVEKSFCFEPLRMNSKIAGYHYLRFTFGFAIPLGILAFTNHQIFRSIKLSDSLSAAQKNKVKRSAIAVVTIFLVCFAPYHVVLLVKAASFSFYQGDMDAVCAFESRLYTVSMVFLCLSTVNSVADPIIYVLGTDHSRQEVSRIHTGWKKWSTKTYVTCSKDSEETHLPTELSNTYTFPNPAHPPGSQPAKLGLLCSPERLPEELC
In words: Gpr132 co-immunoprecipitation with LC-MS quantification of lactate. Format: binding. Particulars: lactate of <3 kDa EO771 CM, BMDM lysate. How it is done: To determine whether lactate in the <3 kDa fraction of EO771 CM could bind to macrophage Gpr132, co-immunoprecipitation with anti-Gpr132 in WT and Gpr132-KO BMDMs was performed. Lactate pulled down by Gpr132 was quantified by liquid chromatography-mass spectrometry (LC-MS).
WT or Gpr132-KO BMDM lysate was incubated with concentrated <3 kDa EO771 CM for 4 hrs. This mixture of 1 ml volume was then incubated with 10 μl anti-Gpr132 antibody and 40 μl protein A/G plus-agarose beads overnight at 4° C. After the beads were washed, the IP eluent was collected for lactate quantification. Lactate was extracted and analyzed as reported (7). Briefly, 400 μl of cold MeOH was added to 100 μl of the IP eluent. Samples were mixed and then stored at −80° C. overnight. The next morning, samples were spun at 14,000 g for 10 min, and the supernatant was collected. After drying the supernatant via speedvac, the extract was dissolved in H2O (40 μl) and a portion of this sample (10 μl) analyzed by LC-MS. Lactate was measured using a TSQ Quantiva LC-MS instrument fitted with a Luna NH2 HPLC column ([…], 4.6 mm×100 mm, Phenomenex). The following LC solvents were used: buffer A, 95:5 H2O/ACN, 20 mM ammonium hydroxide, 20 mM ammonium acetate; buffer B, 100% ACN. […] Relative abundance of lactate was determined by measuring the lactate peak area.

Turning to `CC(O)C(=O)O` (stereo not shown) [lactate], the “lactate enrichment in Gpr132 co-IP eluent, WT vs Gpr132-KO macrophages” value is reported as 7.1 fold.
